Results: patent US10653698B2, “Methods of improving myocardial performance in Fontan patients using udenafil compositions” (priority 2014, dated 2020)
Where two headings read alike, the source gives them in different places.

Experiments:
[1] = system: adolescents with single ventricle physiology after Fontan palliation; assay type: in vivo, human
Method: A Phase I/II dose escalation trial of Udenafil in adolescents with single ventricle physiology after Fontan palliation was conducted. […] The 36 subjects enrolled in the trial were comprised of 6 cohorts, as described in Table 1. The goals for this trial were to assess the safety of udenafil at multiple dose levels over a five-day period, the pharmacokinetic profile of udenafil in adolescents with Fontan physiology, and the short-term effect of udenafil on pharmacodynamic measures of exercise capacity, ventricular performance, and vascular function. Multiple doses of udenafil or a pharmaceutically acceptable salt thereof were administered to male and female Fontan patients who are 14-18 years of age. Inclusion Criteria for the trial were: • Males and females with Fontan physiology who are 14-18 years of age. • Willingness to return to center to complete blood draws and exercise tests as described in the study protocol. • Patients must agree to abstain from alcohol, caffeinated beverages, and grapefruit juice for the duration of the trial. • Informed assent from subject and informed consent from parent/legal guardian as appropriate. […] The purpose of this example was to describe and evaluate the safety of the udenafil compositions administered in the study described in Example 1. Tables 3-6 present numbers of subjects reporting at least one AE; data are presented by treatment group. The counts are presented by AE category (Table 3) and by preferred term (Table 6). Tables 3-6 report all AEs by category (Table 3), serious AEs (Table 4), non-serious AEs (Table 5), and all AEs by preferred term (Table 6). […] Tables 9-12 present AEs by preferred term (similar to Table 6), but additionally report the number of subjects with an AE and the number of AEs (Table 9), the number of AE events/subjects grouped by treatment group and by related (including possibly or probably) vs. not related to the study drug (Table 10), mild vs. moderate/severe (Table 11), and expected vs. unexpected AEs (Table 12).

[2] = Pharmacokinetic testing, non-compartmental analysis of plasma concentrations; assay type: in vivo, human
Method: NONMEM version 7.2, R, PDxPOP® 5, Xpose, and Phoenix WinNonlin was used for the pharmacokinetic analysis.
Pharmacokinetic analysis was performed on Fontan patients receiving udenafil. […] Plasma concentrations were determined at various time points and non-compartmental analysis was performed in patients and stratified by dosing regimens.

[3] = cited from earlier work
ED patients = conditions: 50 mg or 75 mg once daily for 12 wk; cited from earlier work
[4] = 87.5 mg q12 h and 125 mg q24 h cohorts compared to 37.5 mg q12 h or q24 h cohorts

Structure (SMILES): CCCOc1ccc(S(=O)(=O)NCCC2CCCN2C)cc1-c1nc2c(CCC)nn(C)c2c(=O)[nH]1 (stereo not drawn) [udenafil]
- AE category: Musculoskeletal/skin ([1]; 37.5 mg daily): 1 (17%) n (%)
- AE category: Musculoskeletal/skin ([1]; 37.5 mg twice daily): 1 (17%) n (%)
- AE category: Musculoskeletal/skin ([1]; 87.5 mg daily): 1 (17%) n (%)
- AE category: Musculoskeletal/skin ([1]; 87.5 mg twice daily): 2 (33%) n (%)
- AE category: Musculoskeletal/skin ([1]; 125 mg daily): 2 (33%) n (%)
- subjects who had expected adverse events ([1]; both, human, in vivo, 5 day): 27
- subjects who had unexpected adverse events ([1]; both, human, in vivo, 5 day): 18
- Subjects with adverse events possibly related to the study drug ([1]; both, human, in vivo, 5 days): 21 subjects
- Subjects with adverse events probably related to the study drug ([1]; both, human, in vivo, 5 days): 11 subjects
- Subjects with adverse events related to the study drug ([1]; both, human, in vivo, 5 days): none
- Subjects with adverse events unrelated to the study drug ([1]; both, human, in vivo, 5 days): 17 subjects
- subjects who had a severe adverse event ([1]; both, human, in vivo, 5 days): 1
- subjects who had mild adverse events ([1]; both, human, in vivo, 5 days): 27
- subjects who had moderate adverse events ([1]; both, human, in vivo, 5 days): 13
- Serious adverse events ([1]; in vivo): No serious AEs were reported
- AUCτ [2, 4]: significantly increased
- Cmax [2, 4]: significantly increased
- AUC0-24 ([2]; 87.5 mg q12 h cohort among all regimens tested): highest
- Cmax ([2]; 87.5 mg q12 h cohort compared to its q24 h counterpart): increased
- AUC0-24 ([2]; 125 mg q24 h cohort compared to 37.5 mg q24 h cohort): significantly increased
- ke, T1/2, or Tmax ([2]; among all 5 tested dosing regimens): no statistically significant difference
- CL/F or V/F ([2]; among dosing regimens, except between 37.5 mg q24 h and 87.5 mg q12 h): No significant difference
- T1/2 ([3]; in vivo): 11 to 13 h
- Tmax ([3]; in vivo): 1.0 to 1.5 h
- half-life ([3]; in vivo): 7.3 to 12.1 h
- time to steady state ([3]; multiple dosing, previous studies): 5 days
- erectile function (ED patients): significantly improved
